Source: patent US20230271958A1, “SALT AND CRYSTAL FORM OF DIHYDROPYRIDO[2,3-d]PYRIMIDINE DERIVATE” (NANJING CHIA TAI TIANQING PHARMACEUTICAL CO., LTD., priority 2020, published 2023)

Experiment: Solid stability of crystal form A (chemical purity by HPLC)
Assay type: physicochemical
Details: for Purity (%) after placement (day 20): exposed to air for 20 d; for Purity (%) before placement (day 0): exposed to air
Method: Hot and humid conditions: temperature: 40° C., relative humidity: 75%, crystal form A was exposed to air for 20 d • b. High temperature conditions: temperature: 60° C., crystal form A was exposed to air for 20 d
The chemical purity of crystal form A was measured by HPLC.
Chromatographic column: ACE Excel 5 Super C18 (4.6×150 mm, 5 μm)
Detection wavelength: 230 nm, column temperature: 30° C., flow rate: 1.0 mL/min
Mobile phase: diammonium hydrogen phosphate (1.32 g) was weighed and dissolved in water (1000 mL), the solution was adjusted with phosphoric acid until the pH of the solution was 7.2, filtered, and used as A phase; and acetonitrile was used as B phase.

[1] = condition a: 40° C., relative humidity 75%

Purity (%) after placement (day 20) [1]: 99.89% | Purity (%) before placement (day 0) [1]: 99.84% | Purity (%) after placement (day 20) (condition b: 60° C.): 99.88% | Purity (%) before placement (day 0) (condition b: 60° C.): 99.84%
SMILES: CC(C)NC[C@@H](C(=O)N1CCN(c2ncnc3c2[C@H](C)CC(=O)N3)[C@H]2C[C@H]21)c1ccc(Cl)cc1.O=C(O)/C=C/C(=O)O [crystal form A]
